This note sets out measurements from patent US11731943B2, “Therapeutic compounds, compositions and methods of use thereof” (priority 2016, dated 2023).

Assay [1] deals with isolated recombinant JAK1 kinase domain (Homo sapiens (Human), UniProt P23458). In words: JAK1 enzyme assay (Caliper LabChip, Ki). To be noted: read-out: JAK1 Ki. It is filed as biochemical. In a few lines:
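Ki derived via Morrison tight-binding model, ATP-competitive correction applied. Read-out: product/total ratio of a 5-carboxyfluorescein-tagged JAK3 peptide separated on Caliper LabChip after phosphorylation by isolated human JAK1 kinase domain (22 °C, 30 min; EDTA quench, 50 mM final).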

The target in assay [2] is isolated recombinant JAK2 kinase domain (Homo sapiens (Human), UniProt O60674). Put plainly: JAK2 enzyme assay (Caliper LabChip, Ki). It is filed as biochemical. The method in brief:
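Caliper LabChip readout of phosphorylated product as a fraction of total substrate, a fluorescently N-terminally labelled JAK3-derived peptide. Isolated human JAK kinase domains were incubated 30 min at 22 °C before EDTA quench (50 mM final).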

For assay [3], the system named is JAK1-dependent STAT6 phosphorylation downstream of IL-13 stimulation in BEAS-2B human bronchial epithelial cells. Put plainly: JAK1 pathway assay in BEAS-2B cells (IL-13-pSTAT6, MSD). It is filed as cell-based. To be noted: Homo sapiens, BEAS-2B, BEAS-2B cells, IL-13 stimulation; read-out: IL-13 p-STAT6 BEAS-2B IC50.

As a reminder, the Ki is a dissociation constant, usually derived from enzyme kinetics or from competition with a known ligand. The IC50 is the concentration needed to halve the response being measured.

isolated recombinant JAK1 kinase domain, sequence (P23458 875-1153): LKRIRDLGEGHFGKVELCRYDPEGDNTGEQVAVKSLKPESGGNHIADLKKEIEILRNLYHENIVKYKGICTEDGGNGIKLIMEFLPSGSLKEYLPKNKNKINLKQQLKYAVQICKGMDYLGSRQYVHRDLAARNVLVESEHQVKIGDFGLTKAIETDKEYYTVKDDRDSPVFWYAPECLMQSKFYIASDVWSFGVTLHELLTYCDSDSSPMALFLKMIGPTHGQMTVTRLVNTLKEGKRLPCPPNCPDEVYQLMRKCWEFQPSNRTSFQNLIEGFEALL
isolated recombinant JAK2 kinase domain, sequence (O60674 849-1124): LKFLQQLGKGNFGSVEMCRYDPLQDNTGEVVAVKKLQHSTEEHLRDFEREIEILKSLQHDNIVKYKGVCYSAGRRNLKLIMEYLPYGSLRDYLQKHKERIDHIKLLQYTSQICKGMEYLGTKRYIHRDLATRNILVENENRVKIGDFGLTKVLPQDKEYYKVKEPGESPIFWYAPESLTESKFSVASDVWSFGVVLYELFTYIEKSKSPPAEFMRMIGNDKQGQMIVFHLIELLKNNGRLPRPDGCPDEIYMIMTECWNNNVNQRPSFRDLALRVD

For `CCC1(n2cc(C(N)=O)c(Nc3ccc(S(=O)(=O)C(F)F)cc3)n2)CCN(Cc2cc(O)ccc2F)CC1` [Example 301, 3-((4-((Difluoromethyl)sulfonyl)phenyl)amino)-1-(4-ethyl-1-(2-fluoro-5-hydroxybenzyl)piperidin-4-yl)-1H-pyrazole-4-carboxamide], the figures for the Ki in assay [1] and in assay [2] were 1.5 nM and 2 nM, respectively. Moreover, the half-inhibitory concentration (IC50) in assay [3] was found to be 100 nM.
As to `COC(=O)Nc1nn(C2(CC#N)CCN(Cc3ccc(C4=CCCCC4)c(O)c3)CC2F)cc1C(N)=O` (stereo not drawn) [Example 258, methyl N-[4-carbamoyl-1-[4-(cyanomethyl)-1-[[4-(cyclohexen-1-yl)-3-hydroxy-phenyl]methyl]-3-fluoro-4-piperidyl]pyrazol-3-yl]carbamate], the figures for the Ki in assay [1] and in assay [2] were 0.34 nM and 0.29 nM, respectively. The IC50 in assay [3] was 34 nM.
For `N#CC[C@]1(n2cc(C(N)=O)c(NC(=O)C3CC3)n2)CCN(Cc2ccc(-c3ccccc3)cc2)C[C@H]1F` (single isomer, unassigned) [Example 14], in that order: 0.2 nM, 0.4 nM and 16 nM.
For the molecule `CCn1ccc(-c2ccc(CN3CCC(CC#N)(n4cc(C(N)=O)c(NC(=O)OC)n4)C(F)C3)cc2)n1` (stereo not drawn) [Example 216, methyl N-[4-carbamoyl-1-[4-(cyanomethyl)-1-[[4-(1-ethylpyrazol-3-yl)phenyl]methyl]-3-fluoro-4-piperidyl]pyrazol-3-yl]carbamate], the Ki in assay [1] amounted to 0.74 nM; in assay [2], 0.7 nM. For the same molecule, the IC50 in assay [3] was found to be 40 nM.
For `N#CCC1(n2cc(C(N)=O)c(NC(=O)C3CC3C#N)n2)CCN(Cc2cc(O)c(-c3ccccc3)cc2F)CC1F` (stereo not drawn) [Example 240, 3-[(2-cyanocyclopropanecarbonyl)amino]-1-[4-(cyanomethyl)-3-fluoro-1-[(2-fluoro-5-hydroxy-4-phenyl-phenyl)methyl]-4-piperidyl]pyrazole-4-carboxamide], in that order: 0.19 nM, 0.29 nM and 71 nM.
For `CCc1ccc(-c2ccc(CN3CCC(CC#N)(n4cc(C(N)=O)c(NC(=O)C5CC5)n4)CC3)cc2O)cc1` [Example 189, 1-[4-(cyanomethyl)-1-[[4-(4-ethylphenyl)-3-hydroxy-phenyl]methyl]-4-piperidyl]-3-(cyclopropanecarbonylamino) pyrazole-4-carboxamide], in that order: 0.33 nM, 1.3 nM and 38 nM.
With `COC(=O)Nc1nn(C2(CC#N)CCN(Cc3ccc(C4=CCCC4)c(O)c3)CC2F)cc1C(N)=O` (stereo not drawn) [Example 269, methyl N-[4-carbamoyl-1-[4-(cyanomethyl)-1-[[4-(cyclopenten-1-yl)-3-hydroxy-phenyl]methyl]-3-fluoro-4-piperidyl]pyrazol-3-yl]carbamate], the Ki in assay [1] was 0.6 nM; in assay [2] it was 0.55 nM. Further, the half-inhibitory concentration (IC50) in assay [3] is 35 nM.
Take `COC(=O)Nc1nn(C2(CC#N)CCN(Cc3cc(O)c(C)cc3F)CC2F)cc1C(N)=O` (stereo not drawn) [Example 292, methyl N-[4-carbamoyl-1-[4-(cyanomethyl)-3-fluoro-1-[(2-fluoro-5-hydroxy-4-methyl-phenyl)methyl]-4-piperidyl]pyrazol-3-yl]carbamate]: the Ki was determined as 0.55 nM in assay [1] and 0.7 nM in assay [2]. Besides, the IC50 in assay [3] came to 49 nM.
